Here are results for two molecules from paper PMC6543911, “Discovery of Coumarin as Microtubule Affinity-Regulating Kinase 4 Inhibitor That Sensitize Hepatocellular Carcinoma to Paclitaxel” (Frontiers in Chemistry, 2019).

One data set addresses AKT1 (Homo sapiens, UniProt P31749). The data set is described as follows: Kinase activity assay using AKT1 as enzyme. Type of data set: biochemical. The conditions noted are these: duplicate, means ± SEM. How it is done:
(§1) With these coumarins in hand, we performed kinase assay using MARK4 catalytic domain as enzyme to test the MARK4 inhibitory activity of these samples. […] To characterize the selectivity of compound 50, we performed kinase activity assay by using PDK1, AKT1, Src, and MARK4 as enzyme.
(§2) The kinase activity of MARK4 was measured via ADP-Glo™ kinase assay kit (Promega, USA) under manufacturer's instruction. The recombinant MARK4 catalytic domain was used as kinase. MARK4 (5 nM) activity was tested in a reaction (10 μL) containing 25 mM Tris (pH 7.6), 10 mM MgCl2, 150 mM NaCl, 1 mM EDTA, 1 mM DTT, 100 μM ATP, 5 μM MAP4 and varied concentrations of samples for 30 min. The reaction progress was monitored on Thermo Scientific Varioskan Flash Multimode Reader. Each data point was collected in duplicate and kinetic parameters were obtained using GraphPad Prism v6.0 software.

In data set [1] the target is T1, MARK4 catalytic domain (Homo sapiens, UniProt Q96L34).
T1 construct: The recombinant MARK4 catalytic domain was used as kinase; made in house; host or cells: E. coli BL21 (DE3)
T1 sequence (Q96L34 59-310 limits assumed): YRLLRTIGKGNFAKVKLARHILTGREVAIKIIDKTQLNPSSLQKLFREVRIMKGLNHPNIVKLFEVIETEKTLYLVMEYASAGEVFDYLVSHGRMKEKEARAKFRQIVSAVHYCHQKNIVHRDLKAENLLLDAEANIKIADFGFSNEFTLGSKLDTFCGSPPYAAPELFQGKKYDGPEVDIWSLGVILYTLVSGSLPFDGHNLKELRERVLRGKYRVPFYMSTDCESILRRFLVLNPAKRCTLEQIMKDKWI
The data set can be described thus: Kinase activity assay (ADP-Glo) using MARK4 as enzyme. Type of data set: biochemical. The note with it: for IC50: MARK4 5 nM, 100 μM ATP, 5 μM MAP4, 30 min, duplicate, means ± SEM. The protocol:
MARK4 catalytic domain sequence was subcloned into pET-28a vector. Protein expression in E. coli. BL21 (DE3) was induced by IPTG overnight at 16°C, and the cells were then pelleted by centrifugation at 4,000 rpm for 15 min and resuspended in 20 mL buffer (20 mM Tris-HCl, 150 mM NaCl, 25 mM imidazole pH 8.0). Proteins were purified by nickel-affinity chromatography followed by thrombin cleavage. The proteins were further purified by size-exclusion chromatography using a Superdex 75 column (GE Healthcare).
as §2

Another data set addresses T2, PDK1 (Homo sapiens, UniProt O15530).
T2 sequence (O15530 1-556): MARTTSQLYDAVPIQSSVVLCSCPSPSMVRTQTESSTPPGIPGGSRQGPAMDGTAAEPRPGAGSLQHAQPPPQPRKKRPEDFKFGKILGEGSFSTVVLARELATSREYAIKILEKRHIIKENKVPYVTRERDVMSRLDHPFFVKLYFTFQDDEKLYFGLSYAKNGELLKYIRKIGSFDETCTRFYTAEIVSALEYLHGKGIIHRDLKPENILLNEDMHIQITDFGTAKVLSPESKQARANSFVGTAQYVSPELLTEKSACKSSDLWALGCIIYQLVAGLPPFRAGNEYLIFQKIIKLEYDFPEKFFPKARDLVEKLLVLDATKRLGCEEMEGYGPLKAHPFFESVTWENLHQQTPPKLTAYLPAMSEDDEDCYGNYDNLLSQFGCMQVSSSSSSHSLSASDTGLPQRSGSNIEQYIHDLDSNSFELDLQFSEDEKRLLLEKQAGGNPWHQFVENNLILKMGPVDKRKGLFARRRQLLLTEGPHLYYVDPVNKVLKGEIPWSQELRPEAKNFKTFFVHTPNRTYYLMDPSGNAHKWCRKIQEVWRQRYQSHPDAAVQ
The data set is described as follows: Kinase activity assay using PDK1 as enzyme. Type of data set: biochemical. The note with it: duplicate, means ± SEM. How it is done: as §1, §2

Another data set addresses MARK4. Details: method as in Naz et al., 2015. The conditions noted are these: ref Naz et al., 2015; read-out: Kd between BX-795 and MARK4; cited from earlier work.
The target of the next data set is Src (Homo sapiens, UniProt P12931). The data set can be described thus: Kinase activity assay using Src as enzyme. In kind it is biochemical. The conditions noted are these: duplicate, means ± SEM. How it is done:
as §1, §2

Data set [2] has as its target T1, MARK4 catalytic domain. The data set is described as follows: Surface plasmon resonance (SPR) assay. Type of data set: binding. The conditions noted are these: different sample concentrations, read-out: dissociation constant (Kd value) toward MARK4. How it is done:
The interaction of small molecule with MARK4 was monitored by surface plasmon resonance (SPR) using a BIAcore T100 instrument (GE Healthcare, USA). In brief, recombinant MARK4 catalytic domain was immobilized on a carboxyl methylated dextran sensor chip (Sensor Chip CM3). A flow channel blocked by ethanolamine was used as control surface. The specific interaction of samples with the immobilized MARK4 catalytic domain was assessed. All samples were analyzed at a flow rate of 30 μL/min with 10 mM HEPES running buffer and contact time of 260 s. The surface was washed and regenerated with a 10 mM glycine-HCl buffer at pH 3.0 followed by a 30 min waiting time for dissolution after each experiment. The analyses were performed in BIAcore T100 evaluation software, version 2.0.2 (GE Healthcare, USA).

A further data set concerns MAP4 phosphorylation. The data set can be described thus: Immunoblotting of MAP4 phosphorylation in HepG2 cell lysates. Type of data set: cell-based. The note with it: HepG2 cells, 15 μM, 36 h. The protocol: HepG2 cells (2 × 10^5 cells/well) were plated in a 6-well plate and treated with compound 50 (15 μM) and vehicle at 37°C for 36 h. Cells were harvested, washed with physiological saline, and lysed with RIPA lysis buffer (Beyotime) including phosphatase and protease cocktail (Bimake). Protein was quantified by BCA protein assay kit (Bestbio) and subjected to SDS-PAGE. The separated proteins were transferred onto PVDF membranes and probed with antibody (anti-p-MAP4, anti-MAP4, and anti-actin) and peroxidase-conjugated secondary antibody, which was followed by enhanced chemiluminescence detection (Amersham Biosciences).
For orientation: In western blotting, separated proteins are transferred to a membrane and probed.

In data set [3] the target is T1, MARK4 catalytic domain. The data set can be described thus: Thermal shift assay. In kind it is binding. The conditions noted are these: sample 1 μM. How it is done:
Recombinant MARK4 catalytic domain was diluted with PBS and divided into two aliquots, with one aliquot being treated with sample (1 μM) and the other aliquot with vehicle. After 20 min of incubation at room temperature, the respective mixtures were divided into smaller (40 μL) aliquots and heated individually at different temperatures for 3 min, followed by cooling at room temperature for 3 min. The appropriate temperatures were determined in preliminary CETSA experiments. The heated mixtures were centrifuged at 20,000 × g at 4°C for 20 min in order to separate the soluble fractions from precipitates. The supernatants were transferred to new microtubes and analyzed by HPLC.

Data set [4] concerns SMMC-7721 cells. The data set can be described thus: Cell apoptosis assay (Annexin V-FITC/PI flow cytometry) in SMMC-7721 cells. In kind it is cell-based. The conditions noted are these: 15 μM, 36 h. How it is done: (§3) HCC cells (2 × 10^5 cells/well) were plated in a 6-well plate and treated with samples at 37°C for 36 h. After incubation, the cells were harvested and washed with ice-cold PBS. Annexin V-FITC-PI apoptosis detection kit (Abcam, USA) was used for a direct observation of viable, early apoptotic, and late apoptotic cells. Annexin V-FITC and propidium iodide were added according to the manufacturer's instructions, and the samples were incubated in the dark for 15 min. The apoptosis ratio was analyzed using BD FACSCalibur flow cytometry.
(Flow cytometry measures light scatter and fluorescence of single cells or particles in a stream.)

Another data set has as its system HEK-293T cells. The data set is described as follows: Cell viability assay in HEK-293T cells. Type of data set: cell-based. The conditions noted are these: human normal HEK-293T cells.
Data set [5] concerns HepG2 cells. The data set can be described thus: Cell viability assay (MTT) in HepG2 cells. In kind it is cell-based. How it is done: (§4) HepG2 and SMMC-7721 cells were cultured in DMEM medium (Gibco) supplemented with 10% FBS (Gibco, USA). For transient transfection, cells were transfected with DNA by Lipofectamine 2000 (Thermo fisher, USA).
(§5) HCC cells (100 μL/each well, 20,000 cells/mL) were seeded in a 96-well culture plate and allowed to grow for 24 h in DMEM medium supplemented with 10% FBS and 1% penicillin/streptomycin sulfate. The cells were then treated with drugs or vehicle control and incubated in a 5% CO2 incubator for indicated time. At the end of incubation, 10 μL of MTT stock solution (5 mg/mL) was added into each well. The plate was continued to be incubated at 37°C for 4 h before the medium was removed. Then, DMSO (100 μL) was added into each well, followed by thorough shaking. The absorbance of the formazan product was measured at 570 nm on Thermo Scientific Varioskan Flash Multimode Reader. The IC50 value was obtained by fitting dose-response data to a three parametric non-linear regression model using GraphPad Prism 6.0 software.

Data set [6] concerns SMMC-7721 cells. The data set is described as follows: Cell viability assay (MTT) in SMMC-7721 cells. In kind it is cell-based. The protocol:
as §4, §5

Data set [7] relates to HepG2 cells. The data set is described as follows: Cell apoptosis assay (Annexin V-FITC/PI flow cytometry) in HepG2 cells. Type of data set: cell-based. The protocol: as §3
The subject of data set [8] is HepG2 cells. The data set is described as follows: Colony formation assay of HepG2 cells. Type of data set: cell-based. The conditions noted are these: compared with vehicle.

For orientation: IC50 means the concentration that inhibits the measured activity by half. Low readings indicate greater potency, high ones weaker potency. As usually defined, the Kd is the concentration at which binding is half-saturated. As a reminder, the inhibition is the relative decrease from the control value, in per cent. One may read the viability as a per cent measure of how many cells are alive, often set against a control.

Src, sequence (P12931 whole entry, species assumed): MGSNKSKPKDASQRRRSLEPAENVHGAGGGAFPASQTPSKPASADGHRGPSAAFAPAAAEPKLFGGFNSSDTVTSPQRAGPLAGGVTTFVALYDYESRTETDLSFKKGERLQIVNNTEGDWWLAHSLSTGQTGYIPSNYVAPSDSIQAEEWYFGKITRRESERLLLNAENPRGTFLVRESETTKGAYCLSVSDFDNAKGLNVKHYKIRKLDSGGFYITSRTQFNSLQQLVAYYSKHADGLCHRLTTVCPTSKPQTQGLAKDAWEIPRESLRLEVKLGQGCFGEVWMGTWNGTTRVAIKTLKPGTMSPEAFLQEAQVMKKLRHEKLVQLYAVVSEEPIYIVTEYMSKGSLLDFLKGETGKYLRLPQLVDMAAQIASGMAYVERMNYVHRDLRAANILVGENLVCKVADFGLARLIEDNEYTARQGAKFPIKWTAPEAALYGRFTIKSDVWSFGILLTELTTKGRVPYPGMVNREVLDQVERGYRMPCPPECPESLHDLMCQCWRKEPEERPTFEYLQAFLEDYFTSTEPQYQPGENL
AKT1, sequence (P31749 whole entry, species assumed, the tested form may be a part): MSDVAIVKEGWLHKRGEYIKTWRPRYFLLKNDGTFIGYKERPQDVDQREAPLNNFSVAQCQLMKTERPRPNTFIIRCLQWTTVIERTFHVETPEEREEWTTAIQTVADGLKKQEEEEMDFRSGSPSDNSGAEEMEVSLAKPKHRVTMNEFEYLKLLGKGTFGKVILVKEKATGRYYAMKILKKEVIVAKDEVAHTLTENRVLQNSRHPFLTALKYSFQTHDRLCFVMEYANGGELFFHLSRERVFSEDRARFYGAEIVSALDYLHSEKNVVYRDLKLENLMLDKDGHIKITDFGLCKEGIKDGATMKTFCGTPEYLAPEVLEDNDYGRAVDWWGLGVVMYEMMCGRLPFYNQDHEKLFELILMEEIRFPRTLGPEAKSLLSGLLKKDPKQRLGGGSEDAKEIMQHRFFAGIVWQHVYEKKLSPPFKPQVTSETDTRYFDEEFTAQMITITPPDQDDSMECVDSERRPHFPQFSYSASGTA

On to `O=C(NCCCNc1nc(Nc2cccc(NC(=O)N3CCCC3)c2)ncc1I)c1cccs1` [BX-795, reference compound], for which the half-inhibitory concentration (IC50) against AKT1 came to 2.87 ± 0.269 µM; against MARK4 catalytic domain [1], 4.99 ± 0.812 µM; against PDK1, 1.68 ± 0.192 µM; against Src it was 5.87 ± 0.405 µM. Besides, the Kd at MARK4 is 6.46 µM.

In the case of `COc1ccc2oc(=O)c(C(=O)c3ccccc3)cc2c1` [Compound 50, 3-benzoyl-6-methoxy-2H-chromen-2-one], the IC50 at AKT1 stood at 11.8 ± 0.336 µM; at MARK4 catalytic domain [1] it was 1.3 ± 0.102 µM; at PDK1 it was 5.97 ± 0.289 µM; in the data set with HepG2 cells [5] (Homo sapiens, HepG2 cells, MTT), 11.2 µM; in the data set with SMMC-7721 cells [6] (Homo sapiens, MTT), 12.8 µM; on Src, 19 ± 1.32 µM. Further, at MARK4 catalytic domain [1] (at 10 μM), the inhibition at 10 µM was about 80%. Further, the Kd at MARK4 catalytic domain [2] stood at 0.346 µM. Further, the “level of MAP4 phosphorylation” value with MAP4 phosphorylation was “decreased”. On MARK4 catalytic domain [3], the “temperature shift of MARK4 thermal stability (ΔT)” value was found to be 3.13 °C. Besides, the “apoptosis: cell numbers of early and late apoptotic cells” value with SMMC-7721 cells [4] was “obviously increased”; in the data set with HepG2 cells [7] (15 μM, 36 h), “obviously increased”. Further, in the data set on HEK-293T cells, the “concentrations at which cell viability of HEK-293T cells was suppressed” value is over 50 µM. In addition, in the data set on HepG2 cells [5] (HepG2 cells transiently transfected with MARK4-knockdown vs control vectors), the “effect of MARK4-knockdown on anti-proliferative activity” value was “significantly attenuated”. The “inhibitory activity of paclitaxel in the presence of compound” value is “remarkably enhanced” in the data set with HepG2 cells [5] (HepG2 cells, varied paclitaxel concentrations with 2.5 μM compound 50) and “remarkably enhanced” in the data set on SMMC-7721 cells [6] (varied paclitaxel concentrations with 2.5 μM compound 50). In addition, the viability at 2.5 µM in the data set with HepG2 cells [5] (Homo sapiens, HepG2 cells, 2.5 μM compound alone, read-out: cell viability upon treatment) was over 80%; in the data set with SMMC-7721 cells [6] (Homo sapiens, 2.5 μM compound alone, read-out: cell viability upon treatment) it was over 80%. For the same molecule, the “apoptosis, single agent” value with HepG2 cells [7] (2.5 μM alone) is “unable to trigger distinct apoptosis”. The “apoptosis, combination with paclitaxel” value with HepG2 cells [7] (compound 50 2.5 μM in combination with paclitaxel 2.5 μM) is reported as “activated HCC apoptosis”. For the same molecule, the “colony formation of HepG2 cells” value in the data set on HepG2 cells [8] is reported as “significantly suppressed”.
